Laboratory results taken from US20260297106A1, “SPIROCYCLIC SUBSTITUTED OXOISOINDOLINYL PIPERIDINE-2,6-DIONE COMPOUND” (Bristol-Myers Squibb Company, priority 2023, published 2026).
Where two headings read alike, the source gives them in different places.

Key:
[1] = molecular target: IKZF2 Helios (Homo sapiens, UniProt Q96SW2+Q9UKS7); assay: Jurkat Cellular Degradation Assay (IKZF2 Helios); assay type: cell-based; set-up: endogenous in cells; details: Jurkat cells, 72 h; for DC50: concentration reducing protein level by 50% vs DMSO; for Dmax: human, 100% = no detectable protein remaining, read-out: IKZF2 Helios max % deg. observed
Description: Jurkat cells were plated at 80,000 cells/well in 40 μL RPMI+10% FBS in a 384-well cell culture plate prior to using acoustic dispensing technology for adding a compound of interest. Cell cultures were incubated for 72 h at 37° C. and 5% CO2. In order to facilitate analysis, cell cultures were spun down at 200 rpm for 5 min and the supernatant was discarded. After shaking the plate to dislodge the cell pellet, cells were resuspended in 50 μL of Fixation Buffer (eBioscience FoxP3 buffer set 00-5523-00) for 60 min at room temperature. After centrifuging and discarding the supernatant, cells were permeabilized with 50 μL of Permeabilization buffer (eBioscience FoxP3 buffer set 00-5523-00) for 10 min at room temperature. Following permeabilization, cells were spun down and the supernatant was replaced with 20 μL fluorescently labelled antibodies against Helios, Ikaros and Aiolos or corresponding Isotype controls in 1× Permeabilization buffer (Ikaros-Alexa488 [Biolegend, Cat #368408, 1:50], Helios-PE [CST, Cat #29360, 1:50], Aiolos-Alexa647 [Biolegend, Cat #371106 Biolegend, 1:25]) and staining reactions were incubated for 1 h at room temperature while protected from light. Subsequently, 30 μL of 1× Permeabilization buffer was added prior to centrifuging the cells and discarding the supernatant. Stained cells were resuspended in 25 μL of flow cytometry staining buffer [PBS+0.2% bovine serum albumin (BSA)] and analyzed using an Intellicyt Ique Plus flow cytometer.
(§1) Table A-1 lists the maximum observed degradation of the IKZF1 protein, IKZF2 protein, and IKZF3 protein as measured in the Jurkat Cellular Degradation assay. The results in Table A-I were rounded to two digits. In the Jurkat Cellular Degradation assay, a value of 100% indicated no detectable protein remaining or complete degradation of the protein; and a value of 0% indicated no detectable degradation of the protein by the test compound.

[2] = molecular target: IKZF1 Ikaros (Homo sapiens, UniProt Q13422+Q96SW2); assay: Human CD8+ T Cell Reprogramming Assay (IKZF1 Ikaros); assay type: cell-based; set-up: Cryopreserved healthy donor human peripheral blood mononuclear cells; endogenous in cells; host or cells: primary human PBMC, CD8+ T cells read by flow cytometry
Description: Cryopreserved healthy donor human peripheral blood mononuclear cells (PBMC) from healthy donors were thawed and seeded at 500,000 cells/well of 96-well round bottom plates in RPMI 1640 media (Gibco) supplemented with 10% FBS, Pen/Strep (Gibco), MEM-NEAA (Gibco), and sodium pyruvate (Gibco). Cells were treated with titrated doses of compound for 24 hours at 37° C., 5% CO2 before analyzing by flow cytometry.
For flow cytometry staining, cells were washed twice with flow cytometry staining buffer (Thermo Fisher) and incubated in Human Tru-stain Fc block (Biolegend) for 10 minutes before adding eFluor780 viability dye (Thermo Fisher) and surface marker antibody cocktail containing LD-eFluor780, CD3-BUV-395, CD4-BUV805, CD8-FITC, and CD25-BV605 for 30 minutes at 4° C. Cells were then fixed and permeabilized by incubation with permeabilization buffer (eBioscience FoxP3 buffer set 00-5523-00) for 30 minutes at 4° C. as per the kit manufacturer's instructions. Cells were washed twice with the Perm/Wash buffer supplied in the kit as per the manufacturer's instructions and incubated overnight at 4° C. with an intracellular antibody cocktail comprised of antibodies specific for the transcription factors (i.e., Foxp3-BV421, HELIOS-PE-Cy7, EOS-PE, IKAROS-PECF594, AIOLOS-AF647). Cells were washed twice with Perm/Wash buffer and resuspended in flow cytometry staining buffer (Thermo Fisher) prior to acquisition. Sample acquisition and analysis was performed using a BD LSRFortessa (BD Biosciences) flow cytometer. Single-stain controls for each fluorochrome were prepared using UltraComp eBead Compensation Beads (Thermo Fisher). Data were analyzed using FlowJo version 10 and GraphPad Prism Software.
as §1, with “D-1” for “A-1”, “protein” for “protein, IKZF2 protein,”, “Human CD8^+ T Cell Reprogramming” for “Jurkat Cellular Degradation”, “D-1” for “A-I”

[3] = human PBMC, CD8+ T cells, 24 hours, read-out: Maximum Observed Degradation IKZF1 Ikaros
[4] = human, 24 h, Table D-1, read-out: decreased the level of IKZF1 (Ikaros)

Sequence of IKZF2 Helios (Q9UKS7 whole entry): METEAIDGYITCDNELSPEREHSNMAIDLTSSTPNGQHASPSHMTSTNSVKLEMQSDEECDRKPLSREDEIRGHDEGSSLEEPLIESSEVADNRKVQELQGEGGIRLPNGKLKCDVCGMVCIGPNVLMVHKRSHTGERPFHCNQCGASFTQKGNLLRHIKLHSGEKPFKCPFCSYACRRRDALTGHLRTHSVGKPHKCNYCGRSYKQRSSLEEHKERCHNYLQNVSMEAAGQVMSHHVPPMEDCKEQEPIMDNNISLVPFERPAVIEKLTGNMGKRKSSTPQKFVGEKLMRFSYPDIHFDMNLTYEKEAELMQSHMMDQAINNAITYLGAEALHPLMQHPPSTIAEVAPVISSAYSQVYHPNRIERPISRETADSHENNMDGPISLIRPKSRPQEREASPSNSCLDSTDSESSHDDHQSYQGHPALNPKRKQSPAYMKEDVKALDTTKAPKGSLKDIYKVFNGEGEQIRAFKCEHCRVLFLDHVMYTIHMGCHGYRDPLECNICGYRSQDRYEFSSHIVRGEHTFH
Sequence of IKZF2 Helios (Q96SW2 whole entry): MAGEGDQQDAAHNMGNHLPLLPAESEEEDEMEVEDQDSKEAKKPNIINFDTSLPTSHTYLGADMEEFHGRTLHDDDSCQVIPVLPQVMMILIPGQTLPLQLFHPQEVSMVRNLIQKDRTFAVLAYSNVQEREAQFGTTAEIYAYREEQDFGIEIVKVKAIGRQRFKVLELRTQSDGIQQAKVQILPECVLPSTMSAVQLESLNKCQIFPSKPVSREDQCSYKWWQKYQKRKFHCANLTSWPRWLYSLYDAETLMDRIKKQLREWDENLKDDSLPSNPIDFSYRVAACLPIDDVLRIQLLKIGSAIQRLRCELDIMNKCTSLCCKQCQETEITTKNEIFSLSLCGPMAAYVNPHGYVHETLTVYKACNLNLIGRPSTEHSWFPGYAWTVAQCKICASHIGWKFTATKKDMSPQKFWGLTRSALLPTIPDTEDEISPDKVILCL
Sequence of IKZF2 Helios (Q16531 whole entry partner): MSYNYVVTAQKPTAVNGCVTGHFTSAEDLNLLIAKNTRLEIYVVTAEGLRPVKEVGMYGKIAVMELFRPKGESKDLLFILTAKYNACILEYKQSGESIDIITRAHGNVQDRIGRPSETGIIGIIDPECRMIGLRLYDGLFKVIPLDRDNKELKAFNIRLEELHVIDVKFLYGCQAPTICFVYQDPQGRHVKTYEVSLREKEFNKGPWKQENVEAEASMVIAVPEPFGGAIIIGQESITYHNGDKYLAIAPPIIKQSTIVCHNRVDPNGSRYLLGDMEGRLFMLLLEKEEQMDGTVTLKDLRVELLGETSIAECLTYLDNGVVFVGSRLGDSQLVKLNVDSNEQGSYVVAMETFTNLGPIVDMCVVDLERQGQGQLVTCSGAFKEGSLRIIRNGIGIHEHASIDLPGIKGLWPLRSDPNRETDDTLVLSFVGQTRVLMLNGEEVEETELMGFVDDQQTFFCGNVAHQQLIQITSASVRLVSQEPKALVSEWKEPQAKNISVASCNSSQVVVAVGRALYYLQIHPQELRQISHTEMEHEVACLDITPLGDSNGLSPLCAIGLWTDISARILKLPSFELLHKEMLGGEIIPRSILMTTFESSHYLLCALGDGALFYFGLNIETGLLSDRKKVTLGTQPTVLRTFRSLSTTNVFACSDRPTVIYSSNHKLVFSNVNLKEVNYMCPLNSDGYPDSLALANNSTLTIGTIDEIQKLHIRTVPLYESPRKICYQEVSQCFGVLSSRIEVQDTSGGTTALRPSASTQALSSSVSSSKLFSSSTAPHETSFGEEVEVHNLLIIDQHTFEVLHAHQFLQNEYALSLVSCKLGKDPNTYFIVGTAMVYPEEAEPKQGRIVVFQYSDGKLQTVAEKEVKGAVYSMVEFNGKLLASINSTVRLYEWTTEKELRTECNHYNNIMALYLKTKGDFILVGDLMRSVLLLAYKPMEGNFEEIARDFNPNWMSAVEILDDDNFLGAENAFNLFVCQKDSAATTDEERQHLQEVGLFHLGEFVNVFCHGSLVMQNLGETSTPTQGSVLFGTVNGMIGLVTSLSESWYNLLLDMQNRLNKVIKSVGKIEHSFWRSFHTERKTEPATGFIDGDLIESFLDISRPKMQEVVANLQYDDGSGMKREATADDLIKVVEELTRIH
Sequence of IKZF1 Ikaros (Q13422 whole entry): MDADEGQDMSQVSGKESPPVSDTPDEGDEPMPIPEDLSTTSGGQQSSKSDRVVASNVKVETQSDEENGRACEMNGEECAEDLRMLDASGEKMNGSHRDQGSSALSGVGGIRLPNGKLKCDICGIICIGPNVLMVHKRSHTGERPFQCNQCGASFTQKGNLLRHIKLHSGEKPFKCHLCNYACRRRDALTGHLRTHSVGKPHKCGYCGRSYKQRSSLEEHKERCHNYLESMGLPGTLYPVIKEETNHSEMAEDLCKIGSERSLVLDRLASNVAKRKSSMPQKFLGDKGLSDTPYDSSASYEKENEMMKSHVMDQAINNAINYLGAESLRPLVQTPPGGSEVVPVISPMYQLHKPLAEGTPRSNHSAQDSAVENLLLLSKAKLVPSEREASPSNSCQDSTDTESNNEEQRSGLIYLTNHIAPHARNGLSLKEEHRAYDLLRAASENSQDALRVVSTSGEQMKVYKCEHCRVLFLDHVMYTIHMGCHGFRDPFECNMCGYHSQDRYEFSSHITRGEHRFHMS
Sequence of IKZF1 Ikaros (Q96SW2 whole entry): as the sequence (Q96SW2 whole entry) above
Sequence of IKZF1 Ikaros (Q16531 whole entry partner): as the sequence (Q16531 whole entry partner) above

Row | DC50 [1] [nM] | Dmax [2, 3] [%] | Dmax [2, 4] [%] | Dmax [1] [%] | DC50 ([2]; human PBMC, CD8+ T cells, 24 hours, concentration reducing protein level by 50% vs DMSO) [nM] | Dmax ([2]; human, 24 h, Table E comparison, from Table D-1, read-out: IKZF1 Ikaros max % deg. observed) [%] | SMILES
1 | 2.9 | 20 | ≤ 20 |  |  |  | O=C1CCC(N2Cc3c(ccc(-c4cc(CN5CC(c6ccccc6)C5)ccn4)c3F)C2=O)C(=O)N1 (stereo not shown) [Comparative Compound A, 3-(4-fluoro-1-oxo-5-(4-((3-phenylazetidin-1-yl)methyl)pyridin-2-yl)isoindolin-2-yl) piperidine-2,6-dione]
2 | 8 | 11 | ≤ 20 | 90 |  |  | Nc1nc(-c2ccc3c(c2)CN(C2CCC(=O)NC2=O)C3=O)ccc1CN1CC2(CCC2)C1 (stereo not shown) [Comparative Compound B, 3-(5-(5-((2-azaspiro[3.3]heptan-2-yl)methyl)-6-aminopyridin-2-yl)-1-oxoisoindolin-2-yl) piperidine-2,6-dione]
3 | 8.5 | 64 to 65 | 64 to 65 | 91 | 29 to 43 | 64 to 65 | Nc1nc(-c2ccc3c(c2F)CN(C2CCC(=O)NC2=O)C3=O)ccc1CN1CC2(CCCOC2)C1 (stereo not shown) [Example 1, 3-(5-(5-((6-oxa-2-azaspiro[3.5]nonan-2-yl)methyl)-6-aminopyridin-2-yl)-4-fluoro-1-oxoisoindolin-2-yl) piperidine-2,6-dione]
